Experimental data: the NIST ThermoML archive (doi:10.1021/acs.jced.5b00931)

CCCC[n+]1cccc(C)c1.O=S(=O)([O-])C(F)(F)F [1-butyl-3-methylpyridinium trifluoromethanesulfonate]
101.33 kPa, Liquid
Details	mass density, Vibrating tube method [kg/m3]	viscosity, Falling or rolling sphere viscometry [mPa·s]
293.15 K	1279	165
298.15 K	1275.2	126
303.15 K	1271.4	95.7
308.15 K	1267.6	75.9
313.15 K	1263.8	60.2
318.15 K	1260	45.8
323.15 K	1256.2	37.6
328.15 K	1252.5	31.4
333.15 K	1248.7	26.3
338.15 K	1245	22.6
343.15 K	1241.2	19.4
348.15 K	1237.5	16.9
353.15 K	1233.8	14.9
358.15 K	1230.1	13.1
363.13 K	1226.5	–
363.15 K	–	11.6

CCCC[N+]1(C)CCCCC1.O=S(=O)([O-])C(F)(F)F [1-butyl-1-methylpiperidinium trifluoromethanesulfonate]
101.33 kPa, Liquid
Details	mass density, Vibrating tube method [kg/m3]	viscosity, Falling or rolling sphere viscometry [mPa·s]
333.15 K	1216.8	107
338.15 K	1213.3	84.6
343.15 K	1209.8	67.8
348.15 K	1206.4	55.2
353.15 K	1202.9	45.6
358.15 K	1199.5	38
363.13 K	1196.1	–
363.15 K	–	32

CCCC[N+]1(C)CCCC1.O=S(=O)([O-])C(F)(F)F [1-butyl-1-methylpyrrolidinium trifluoromethanesulfonate]
101.33 kPa, Liquid
Details	mass density, Vibrating tube method [kg/m3]	viscosity, Falling or rolling sphere viscometry [mPa·s]
293.15 K	1255.7	217
298.15 K	1252	164
303.15 K	1248.3	128
308.15 K	1244.7	101
313.15 K	1241	80.7
318.15 K	1237.4	65.7
323.15 K	1233.8	54.3
328.15 K	1230.2	42.4
333.15 K	1226.7	35.7
338.15 K	1223.1	30.4
343.15 K	1219.6	26.1
348.15 K	1216.1	22.7
353.15 K	1212.6	19.8
358.15 K	1209	17.4
363.13 K	1205.5	–
363.15 K	–	15.5
